# Experimental data: EP0005186A1, “3-Alkyl-5-(2-hydroxystyryl)-isoxazoles and process for their preparation” (BASF Aktiengesellschaft, priority 1978, dated 1979)
# How the values were obtained:
# narkotisierten Ratte = experiment: blood-pressure-lowering effect in the anaesthetised rat; settings: for Blutdrucksenkende Wirkung ED 20 %: Urethan-Narkose, dose lowering blood pressure by 20 %; for Tiere gestorben: 10 mg/kg, dead animals of 6; for ED20: Rattus norvegicus, iv, read-out: Blutdrucksenkende Wirkung ED 20 %
# Description: (§1) Die Applikation der getesteten Substanzen erfolgt 10 min vor Isoproterenol an Gruppen von 3 bis 5 Katzen pro Dosis. […] Blutdrucksenkende Wirkung an der. narkotisierten Ratte. Zur Testung der blutdrucksenkenden Wirkung erhalten Gruppen von 3 bis 5 männlichen Sprague-Dawley-Ratten (Gewicht: 230 - 280 g) in Urethan-Narkose (1,78 g/kg) i.p.) die Substanz intravenös appliziert. Die Messung des Blutdrucks in der A.carotis erfolgt über Statham-Transducer. Als ED 20 % wird die Dosis ermittelt, welche den mittleren Carotisdruck um 20 % senkt. • 3. Antihypertensive Wirkung an spontan hypertonen Ratten. Die Substanzen werden Gruppen von 8 männlichen spontan hypertonen Okamoto-Ratten (Gewicht: 280 - 350 g) oral appliziert. Vor und zwei Stunden nach der Applikation wird der systolische Blutdruck am Rattenschwanz unblutig mit Hilfe von Piezokristallaufnehmern gemessen. Als ED 20 % wird unter Berücksichtigung der Nerte unbehandelter Kontrolltiere die Dosis bestimmt, welche den systolischen Druck um 20 % senkt. • 4. Akute Toxizität an der Maus Zur Bestimmung der akuten Toxizität (LD 50) werden die Substanzen Gruppen von je 10 weiblichen NMRI-Mäusen (Gewicht: 19 - 20 g) intraperitoneal appliziert. Die Beobachtungsdauer beträgt 1 Woche. Die Berechnung der wirksamen Dosen (s. 1.-3.) erfolgte aus den linearen Beziehungen zwischen den Logarithmen der Dosen und der Wirkung mit Hilfe der Regressionsanalyse. Die LD 50 (4.) wurden mit Hilfe der Probit-Analyse bestimmt.
# Maus = experiment: in vivo; settings: Maus, i.p., observation 1 week; 10080 min
# Description: as §1, with “Akute Toxizität an der Maus Zur Bestimmung der akuten Toxizität (LD 50) werden die Substanzen Gruppen von je 10 weiblichen NMRI-Mäusen (Gewicht: 19 - 20 g) intraperitoneal appliziert.” left out, “Regressionsanalyse.” for “Regressionsanalyse. Die LD 50 (4.) wurden mit Hilfe der Probit-Analyse bestimmt.”
# [1] = system: Isoproterenol--Tachycardie der narkotisierten Katze; experiment: beta-sympatholytic effect on isoproterenol tachycardia in the anaesthetised cat; format: in vivo; settings: for ß-Sympatholytische Wirkung R.W. (Relative Wirksamkeit): Propranolol = 1,00; for ED50: Felis catus, iv, read-out: ß-Sympatholytische Wirkung ED 50 %
# Description: as §1, with “Akute Toxizität an der Maus Zur Bestimmung der akuten Toxizität (LD 50) werden die Substanzen Gruppen von je 10 weiblichen NMRI-Mäusen (Gewicht: 19 - 20 g) intraperitoneal appliziert.” left out, “Regressionsanalyse.” for “Regressionsanalyse. Die LD 50 (4.) wurden mit Hilfe der Probit-Analyse bestimmt.”
# [2] = system: spontan hypertonen Ratten; experiment: antihypertensive effect in spontaneously hypertensive rats; format: in vivo, Okamoto-Ratten; settings: spontan hypertone Ratten, oral
# Description: as §1, with “Die LD 50 (4.) wurden mit Hilfe der Probit-Analyse bestimmt.” left out
# in vivo = settings: mouse, in vivo, ip
# Description: as §1, with “Akute Toxizität an der Maus Zur Bestimmung der akuten Toxizität (LD 50) werden die Substanzen Gruppen von je 10 weiblichen NMRI-Mäusen (Gewicht: 19 - 20 g) intraperitoneal appliziert.” left out, “Regressionsanalyse.” for “Regressionsanalyse. Die LD 50 (4.) wurden mit Hilfe der Probit-Analyse bestimmt.”
Compound,"Blutdrucksenkende Wirkung ED 20 % (narkotisierten Ratte; Ratte, i.v.)","ß-Sympatholytische Wirkung R.W. (Relative Wirksamkeit) ([1]; Katze, i.v.)","Tiere gestorben (narkotisierten Ratte; Ratte, i.v.) [von 6]",ED20 (narkotisierten Ratte) [mg/kg],LD50 at 168 h (in vivo) [mg/kg],ED50 [1] [µg/kg],other results
3-Äthyl-5-[2-(2-hydroxy-3-cyclopropylaminopropoxy)-styryl]-isoxazol [Verbindung 8],"0,83 mg/kg","0,9",,,,,"Letalität LD 50 (Maus): 95 mg/kg; ß-sympatholytische Wirksamkeit compared with Propranolol [1]: etwa wirkungsgleich; ß-Sympatholytische Wirkung ED 50 % ([1]; Katze, Hexobarbital-Narkose, i.v., dose inhibiting the isoproterenol heart-rate increase by 50 %): 0,12 mg/kg"
"CC(C)NCC(O)COc1cccc2ccccc12 (centres unmarked) [Propranolol, reference compound]",,,2,,,,"Blutdrucksteigerung (narkotisierten Ratte; Ratte, i.v., bis 2,15 mg/kg): blutdrucksteigernd; Antihypertensive Wirkung ([2]; bis zu einer Dosis von 100 mg/kg): wirkungslos"
"Cc1cc(C=Cc2ccccc2OCC(O)CNC(C)C)on1 (centres unmarked) [Verbindung 6, 3-Methyl-5-[2-(2-hydroxy-3-isopropyl-aminopropoxy)-styryl]-isoxazol]",,"14,3",,0.65,108,7.7,
"Cc1cc(C=Cc2ccccc2OCC(O)CNC(C)(C)C)on1 (centres unmarked) [Verbindung 7, 3-Methyl-5-[2-(2-hydroxy-3-tert.-butylaminopropoxy)-styryl]-isoxazol]","0,40 mg/kg","20,0",1,0.4,123,5.5,"ratio of the 10 mg/kg dose to the blood-pressure-lowering dose (0,4 mg/kg) (narkotisierten Ratte; Ratte, i.v.): 25 mal; ED20 ([2]; Rattus norvegicus, systolic pressure 2 h after dosing lowered by 20 %, read-out: Antihypertensive Wirkung ED 20 %): 14.5 mg/kg"
"CCc1cc(C=Cc2ccccc2OCC(O)CNC(C)(C)C)on1 (centres unmarked) [Verbindung 9, 3-Äthyl-5-[2-(2-hydroxy-3-tert.-butylaminopropoxy)-styryl]-isoxazol]",,"6,1",,0.93,84,,
C#CC(C)(C)NCC(O)COc1ccccc1C=Cc1cc(C)no1 (centres unmarked) [Verbindung 10],,"6,5",,1,247,,
